Experimental data published in US7326734B2, “Treatment of bladder and urinary tract cancers” (The Regents of the University of California, priority 2003, dated 2008).

Key:
[1] = tested on: bladder cancer; details: cited from earlier work
[2] = tested on: T24 bladder cancer cells; test: antiproliferative activity against T24 (Grade 3, non-metastatic) bladder cancer cells in vitro; format: cell-based; details: for inhibition at 50 µg/mL / inhibition at 25 µg/mL / Percentage of inhibition related to control (%) / inhibition at 100 µM: bladder cancer cells in vitro; for inhibition at 50 µg/mL / inhibition at 25 µg/mL / inhibition at 100 µM: read-out: Percentage of inhibition related to control (%)
Protocol: (§1) Compounds of the present invention were tested for antiproliferative activity against RT24 (Grade I) and T24 (Grade3, non-metastatic) bladder cancer cells in vitro, in accordance with well known standard technique as diagramed in FIG. 5.

[3] = tested on: advanced transitional cell carcinoma of the urothelium; details: Phase II, with prophylactic G-CSF, cited from earlier work
[4] = tested on: human bladder cancer cell lines; details: cited from earlier work
[5] = tested on: RT24 (Grade I) bladder cancer cells; test: antiproliferative activity against RT24 (Grade I) bladder cancer cells in vitro; format: cell-based; details: FIGS. 1-4
Protocol: FIG. 5 is a schematic diagram of the in vitro test for antiproliferative activity referred to in Example 1 below.
as §1

Nc1ccn([C@@H]2O[C@H](CO)[C@@H](O)C2(F)F)c(=O)n1 [Gemcitabine]
median survival ([1]; clinical trials): less than 12 months | response rate ([1]; clinical trials): less than 30% | toxicity ([1]; phase II trials): in general mild and reversible

CC(=O)OC[C@@]1(O)C[C@@]23CC[C@@H]4c5ccoc5CC[C@@]4(C)[C@@H]2CC[C@@H]1C3 [Cafestol Acetate]
inhibition at 50 µg/mL ([2]; 50 μg/ml): 57.6%

O=c1c(O)c(-c2ccc(O)c(O)c2)oc2cc(O)cc(O)c12 [Quercetin]
inhibition at 50 µg/mL ([2]; 50 μg/ml): 53.3%

COc1ccc2cc3[n+](cc2c1OC)CCc1cc2c(cc1-3)OCO2 [Berberine]
inhibition at 50 µg/mL ([2]; 50 μg/ml): 17.9%

COc1cc(/C=C/C(=O)CC(=O)/C=C/c2ccc(O)c(OC)c2)ccc1O [Curcumin]
inhibition at 50 µg/mL ([2]; 50 μg/ml): 69.7%

O=C1c2c(O)cc(O)cc2O[C@H](c2ccc(O)c(O)c2)[C@H]1O [Taxifolin]
inhibition at 50 µg/mL ([2]; 50 μg/ml): 36.7%

O=c1oc2cc(O)ccc2c2oc3cc(O)ccc3c12 [Coumestrol]
inhibition at 50 µg/mL ([2]; 50 μg/ml): 30%

Oc1ccc(C=Cc2cc(O)cc(O)c2)cc1 [Resveratrol]
inhibition at 50 µg/mL ([2]; 50 μg/ml): 70.6%

COC1=CC(=O)O[C@@H](/C=C/c2ccccc2)C1 [Kawain]
inhibition at 25 µg/mL ([2]; 25 μg/ml): 33.6%

Oc1cc(O)c2c(c1)O[C@H](c1ccc(O)c(O)c1)[C@H](O)[C@H]2c1c(O)cc(O)c2c1O[C@H](c1ccc(O)c(O)c1)[C@@H](O)C2 [Procyanidin B1]
Percentage of inhibition related to control (%) ([2]; 25 μg/ml): 44.2%

CC(=O)O[C@H]1C(=O)[C@@]2(C)[C@H]([C@H](OC(=O)c3ccccc3)[C@]3(O)C[C@H](OC(=O)[C@H](O)[C@@H](NC(=O)c4ccccc4)c4ccccc4)C(C)=C1C3(C)C)[C@]1(OC(C)=O)CO[C@@H]1C[C@@H]2O [paclitaxel]
objective response (response rate) ([3]; previously untreated patients): 42% | toxicities [3]: granulocytopenia, anemia, mucositis, and neuropathy | activity against human bladder cancer cell lines [4]: significant activity

C[C@@]12C=Cc3occc3[C@H]1CC[C@@]13C[C@@H](CC[C@H]12)[C@@](O)(CO)C3 [Kahweol]
Percentage of inhibition related to control (%) ([2]; 50 μg/ml): 61.2%

COc1cc(O)cc(O)c1C(=O)CC(O)c1ccccc1 (stereo not shown) [1-(2,4-Dihydorxy-6-methoxy-phenyl-3-hydorxy-3-phenyl-propan-1-one]
Percentage of inhibition related to control (%) ([2]; 25 μg/ml): 42.3%

O=c1c(O)c(-c2ccc(O)cc2)oc2cc(O)cc(O)c12 [Kaempferol]
inhibition at 50 µg/mL ([2]; 50 μg/ml): 60%

O=c1c(O)c(-c2ccc(O)cc2O)oc2cc(O)cc(O)c12 [Morin]
inhibition at 50 µg/mL ([2]; 50 μg/ml): 34%

O=C(O[C@@H]1Cc2c(O)cc(O)cc2O[C@@H]1c1cc(O)c(O)c(O)c1)c1cc(O)c(O)c(O)c1 [EGCG]
Percentage of inhibition related to control (%) ([2]; 25 μg/ml): 34%

COc1ccc(/C=C/C(=O)c2c(O)cc(OC)cc2OC)cc1 [Flavokawain A, 2′-hydroxy-4,4′,6′-trimethoxychalcone]
inhibitory effects on proliferation ([2]; T24 (Grade 3, non-metastatic) cells in vitro, FIGS. 1-4): significant inhibitory effects | inhibitory effects on proliferation [5]: significant inhibitory effects

COc1ccc(/C=C/C(=O)c2c(OC)cc(O)cc2OC)cc1 [4′-hydroxy-4,2′,6′-trimethoxychalcone]
inhibition at 25 µg/mL ([2]; 25 μg/ml): 73.7%

COc1ccc(-c2coc3cc(O)cc(O)c3c2=O)cc1 [Biochanin A]
Percentage of inhibition related to control (%) ([2]; 25 μg/ml): 48.7%

11-Methysticin
Percentage of inhibition related to control (%) ([2]; 25 μg/ml): 52.1%

COc1cc(/C=C/c2ccc(OC)c(OC)c2)oc(=O)c1 [11-Methoxyangonin]
Percentage of inhibition related to control (%) ([2]; 25 μg/ml): 26.3%

C[C@@H]1O[C@@H](OC[C@H]2O[C@@H](Oc3c(-c4ccc(O)c(O)c4)oc4cc(O)cc(O)c4c3=O)[C@H](O)[C@@H](O)[C@@H]2O)[C@H](O)[C@H](O)[C@H]1O [Rutin]
inhibition at 100 µM [2]: 47.7%

COc1cc(C2Oc3cc([C@H]4Oc5cc(O)cc(O)c5C(=O)[C@@H]4O)ccc3OC2CO)ccc1O (stereo partly shown) [Silibinin]
inhibition at 100 µM [2]: 40%

O=C1C[C@@H](c2ccc(O)cc2)Oc2cc(O)cc(O)c21 [Naringenin]
inhibition at 50 µg/mL ([2]; 50 μg/ml): 20%

O=c1oc2c(O)c(O)cc3c(=O)oc4c(O)c(O)cc1c4c23 [Ellagic acid]
inhibition at 100 µM [2]: 66%

C[C@@H]1O[C@@H](O[C@H]2[C@H](Oc3cc(O)c4c(c3)O[C@H](c3ccc(O)cc3)CC4=O)O[C@H](CO)[C@@H](O)[C@@H]2O)[C@H](O)[C@H](O)[C@H]1O [Naringin]
inhibition at 50 µg/mL ([2]; 50 μg/ml): 29%

O=c1c(-c2ccc(O)cc2)coc2cc(O)cc(O)c12 [Genistein]
inhibition at 25 µg/mL ([2]; 25 μg/ml): 48.7%

O=c1c(-c2ccc(O)cc2)coc2cc(O)ccc12 [Daidzein]
inhibition at 50 µg/mL ([2]; 50 μg/ml): 39.3%

O=c1c2ccccc2nc2n1CCc1c-2[nH]c2ccccc12 [Rutaecurpine]
Percentage of inhibition related to control (%) ([2]; 50 μg/ml): 76%
